According to ChEMBL document CHEMBL1125650, “Relationships between the structure of taxol analogues and their antimitotic activity” (J Med Chem, 1991):
Converted amounts (≈) assume the structure as drawn.

Columns and labels:
[1] = organism: Sus scrofa; assay: Ratio of the concentration leading to a 50% inhibition of the rate of pig brain microtubule disassembly to that of taxol (0.4 uM) was determined; type: functional
[2] = system: P388; assay: The concentration required to 50% inhibition of the P388 leukemic cell proliferation; type: functional, cell-based; conditions: Mus musculus
[3] = Cytotoxicity was measured as ratio of its IC50 value to that of compound 13a; type: functional
[4] = Ratio of the concentration of compound leading to a 50% inhibition of the rate of pig brain microtubule disassembly to that of compound 13a was determined; type: functional

Structure (SMILES) | Ratio [1] | IC50 [2] [µg/mL] | Ratio [3] | Ratio [4]
CC(=O)O[C@H]1C(=O)[C@@]2(C)[C@H]([C@H](OC(=O)c3ccccc3)[C@]3(O)C[C@H](OC(=O)[C@@H](O)[C@H](NC(=O)c4ccccc4)c4ccccc4)C(C)=C1C3(C)C)[C@]1(OC(C)=O)CO[C@@H]1C[C@@H]2O | 4.5 | 7 (≈ 8.2 µM) | 54 | 9
CC(=O)O[C@@]12CO[C@@H]1C[C@H](O)[C@@]1(C)C(=O)[C@H](O)C3=C(C)[C@@H](OC(=O)C(O)C(NC(=O)c4ccc(S(=O)(=O)O)cc4)c4ccccc4)C[C@@](O)([C@@H](OC(=O)c4ccccc4)[C@H]21)C3(C)C (stereo partly specified) | 5.5 | > 4 | >31 | 11
CC(=O)O[C@@]12CO[C@@H]1C[C@H](O)[C@@]1(C)C(=O)[C@H](O)C3=C(C)[C@@H](OC(=O)C(O)C(N)c4ccccc4)C[C@@](O)([C@@H](OC(=O)c4ccccc4)[C@H]21)C3(C)C (stereo partly specified) | 30 | – | – | –
CC(=O)O[C@@]12CO[C@@H]1C[C@H](O)[C@@]1(C)C(=O)[C@H](O)C3=C(C)[C@@H](OC(=O)/C=C/c4ccccc4)C[C@@](O)([C@@H](OC(=O)c4ccccc4)[C@H]21)C3(C)C | 23 | – | – | –
CC(=O)O[C@@]12CO[C@@H]1C[C@H](O)[C@@]1(C)C(=O)[C@H](O)C3=C(C)[C@@H](OC(=O)C(O)C(NC(=O)c4ccccc4)c4ccccc4)C[C@@](O)([C@@H](OC(=O)c4ccccc4)[C@H]21)C3(C)C (stereo partly specified) | 1.3 | – | – | –
CC(=O)O[C@H]1C(=O)[C@@]2(C)[C@H]([C@H](OC(=O)c3ccccc3)[C@]3(O)C[C@H](OC(=O)C(NC(=O)OC(C)(C)C)C(O)c4ccccc4)C(C)=C1C3(C)C)[C@]1(OC(C)=O)CO[C@@H]1C[C@@H]2O (stereo in doubt; 16d) | 108 | – | – | –
CC(=O)O[C@@]12CO[C@@H]1C[C@H](O)[C@@]1(C)C(=O)[C@H](O)C3=C(C)[C@@H](OC(=O)C(O)C(NC(=O)OC(C)(C)C)c4ccccc4)C[C@@](O)([C@@H](OC(=O)c4ccccc4)[C@H]21)C3(C)C (stereo in doubt; 13e) | 1.8 | – | – | –
CC(=O)O[C@H]1C(=O)[C@@]2(C)[C@H]([C@H](OC(=O)c3ccccc3)[C@]3(O)C[C@H](OC(=O)[C@H](O)[C@@H](NC(=O)c4ccccc4)c4ccccc4)C(C)=C1C3(C)C)[C@]1(OC(C)=O)CO[C@@H]1C[C@@H]2O [PACLITAXEL] | – | 0.27 (≈ 0.316 µM) | – | 2
CC(=O)O[C@@]12CO[C@@H]1C[C@H](OC(=O)OCC(Cl)(Cl)Cl)[C@@]1(C)C(=O)[C@H](OC(=O)OCC(Cl)(Cl)Cl)C3=C(C)[C@@H](OC(=O)/C=C/c4ccccc4)C[C@@](O)([C@@H](OC(=O)c4ccccc4)[C@H]21)C3(C)C | 1000 | – | – | –
CC(=O)O[C@H]1C(=O)[C@@]2(C)[C@H]([C@H](OC(=O)c3ccccc3)[C@]3(O)C[C@H](OC(=O)[C@H](NC(=O)c4ccccc4)[C@@H](O)c4ccccc4)C(C)=C1C3(C)C)[C@]1(OC(C)=O)CO[C@@H]1C[C@@H]2O | 10 | 6 (≈ 7.03 µM) | 46 | 20
CC(=O)O[C@@]12CO[C@@H]1C[C@H](OC(=O)CN)[C@@]1(C)C(=O)[C@H](OC(=O)CN)C3=C(C)[C@@H](OC(=O)C(O)C(NC(=O)OC(C)(C)C)c4ccccc4)C[C@@](O)([C@@H](OC(=O)c4ccccc4)[C@H]21)C3(C)C (stereo partly specified) | 1.2 | 0.19 (≈ 0.206 µM) | 1.5 | 1.4
CC(=O)O[C@@]12CO[C@@H]1C[C@H](O)[C@@]1(C)C(=O)[C@H](O)C3=C(C)[C@@H](OC(=O)[C@H](O)[C@@H](NC(=O)OC(C)(C)C)c4ccccc4)C[C@@](O)([C@@H](OC(=O)c4ccccc4)[C@H]21)C3(C)C.O.O.O [DOCETAXEL] | 0.5 | 0.13 | 1 | 1
CC(=O)O[C@@]12CO[C@@H]1C[C@H](O)[C@@]1(C)C(=O)[C@H](O)C3=C(C)[C@@H](OC(=O)[C@H](NC(=O)OC(C)(C)C)[C@@H](O)c4ccccc4)C[C@@](O)([C@@H](OC(=O)c4ccccc4)[C@H]21)C3(C)C | 160 | – | – | –
CC(=O)O[C@@]12CO[C@@H]1C[C@H](O)[C@@]1(C)C(=O)[C@H](O)C3=C(C)[C@@H](OC(=O)C(O)C(O)c4ccccc4)C[C@@](O)([C@@H](OC(=O)c4ccccc4)[C@H]21)C3(C)C (stereo partly specified) | 3 | – | – | –
CC(=O)O[C@@]12CO[C@@H]1C[C@H](O)[C@@]1(C)C(=O)[C@H](O)C3=C(C)[C@@H](OC(=O)C(NC(=O)c4ccccc4)C(O)c4ccccc4)C[C@@](O)([C@@H](OC(=O)c4ccccc4)[C@H]21)C3(C)C (stereo in doubt; 14c) | 10 | – | – | –
CC(=O)O[C@H]1C(=O)[C@@]2(C)[C@H]([C@H](OC(=O)c3ccccc3)[C@]3(O)C[C@H](OC(=O)C(O)C(C)O)C(C)=C1C3(C)C)[C@]1(OC(C)=O)CO[C@@H]1C[C@@H]2O (stereo partly specified) | 60 | – | – | –
C/C=C/C(=O)O[C@H]1C[C@@]2(O)[C@@H](OC(=O)c3ccccc3)[C@@H]3[C@]4(OC(C)=O)CO[C@@H]4C[C@H](O)[C@@]3(C)C(=O)[C@H](OC(C)=O)C(=C1C)C2(C)C | 100 | – | – | –
CC(=O)O[C@@]12CO[C@@H]1C[C@H](O)[C@@]1(C)C(=O)[C@H](O)C3=C(C)[C@@H](OC(=O)[C@H](O)[C@@H](NC(=O)c4ccccc4)c4ccccc4)C[C@@](O)([C@@H](OC(=O)c4ccccc4)[C@H]21)C3(C)C | 1.3 | – | – | –

Structure (SMILES) | Ratio [1] | IC50 [2] [µg/mL] | Ratio [3] | Ratio [4]
CC(=O)O[C@@]12CO[C@@H]1C[C@H](O)[C@@]1(C)C(=O)[C@H](O)C3=C(C)[C@@H](OC(=O)CC(NC(=O)OC(C)(C)C)c4ccccc4)C[C@@](O)([C@@H](OC(=O)c4ccccc4)[C@H]21)C3(C)C (single isomer, unassigned; 10a) | 2.3 | – | – | –
CC(=O)O[C@H]1C(=O)[C@@]2(C)[C@H]([C@H](OC(=O)c3ccccc3)[C@]3(O)C[C@H](OC(=O)C(NC(=O)OC(C)(C)C)C(O)c4ccccc4)C(C)=C1C3(C)C)[C@]1(OC(C)=O)CO[C@@H]1C[C@@H]2O (stereo in doubt; 16c) | 10 | – | – | –
CC(=O)O[C@@]12CO[C@@H]1C[C@H](O)[C@@]1(C)C(=O)[C@H](O)C3=C(C)[C@@H](OC(=O)[C@H](O)[C@@H](NS(=O)(=O)c4ccc(C)cc4)c4ccccc4)C[C@@](O)([C@@H](OC(=O)c4ccccc4)[C@H]21)C3(C)C | 5 | – | – | –
CC(=O)O[C@@]12CO[C@@H]1C[C@H](OC(=O)CCCC(=O)O)[C@@]1(C)C(=O)[C@H](OC(=O)CCCC(=O)O)C3=C(C)[C@@H](OC(=O)C(O)C(NC(=O)OC(C)(C)C)c4ccccc4)C[C@@](O)([C@@H](OC(=O)c4ccccc4)[C@H]21)C3(C)C (stereo partly specified) | 2 | – | – | –
CC(=O)O[C@@]12CO[C@@H]1C[C@H](O)[C@@]1(C)C(=O)[C@H](O)C3=C(C)[C@@H](OC(=O)C(O)Cc4ccccc4)C[C@@](O)([C@@H](OC(=O)c4ccccc4)[C@H]21)C3(C)C (stereo partly specified) | 4.5 | – | – | –
CC(=O)O[C@@]12CO[C@@H]1C[C@H](O)[C@@]1(C)C(=O)[C@H](O)C3=C(C)[C@@H](OC(=O)CCc4ccccc4)C[C@@](O)([C@@H](OC(=O)c4ccccc4)[C@H]21)C3(C)C | 17 | – | – | –
CC(=O)O[C@@]12CO[C@@H]1C[C@H](O)[C@@]1(C)C(=O)[C@H](O)C3=C(C)[C@@H](OC(=O)C(O)C(NC(=O)CCCC(=O)O)c4ccccc4)C[C@@](O)([C@@H](OC(=O)c4ccccc4)[C@H]21)C3(C)C (stereo partly specified) | 1 | – | – | –
CC(=O)O[C@@]12CO[C@@H]1C[C@H](O)[C@@]1(C)C(=O)[C@H](O)C3=C(C)[C@@H](OC(=O)CC(NC(=O)OC(C)(C)C)c4ccccc4)C[C@@](O)([C@@H](OC(=O)c4ccccc4)[C@H]21)C3(C)C (single isomer, unassigned; 10b) | 4.1 | – | – | –
CC(=O)O[C@@]12CO[C@@H]1C[C@H](O)[C@@]1(C)C(=O)[C@H](O)C3=C(C)[C@@H](OC(=O)[C@@H](O)Cc4ccccc4)C[C@@](O)([C@@H](OC(=O)c4ccccc4)[C@H]21)C3(C)C | 3.5 | – | – | –
CC(=O)O[C@@]12CO[C@@H]1C[C@H](O)[C@@]1(C)C(=O)[C@H](O)C3=C(C)[C@@H](OC(=O)C(NS(=O)(=O)c4ccc(C)cc4)C(O)c4ccccc4)C[C@@](O)([C@@H](OC(=O)c4ccccc4)[C@H]21)C3(C)C (stereo partly specified) | 15 | – | – | –
CC(=O)O[C@@]12CO[C@@H]1C[C@H](O)[C@@]1(C)C(=O)[C@H](O)C3=C(C)[C@@H](OC(=O)[C@@H](O)[C@H](NC(=O)c4ccccc4)c4ccccc4)C[C@@](O)([C@@H](OC(=O)c4ccccc4)[C@H]21)C3(C)C | 4 | – | – | –
CC(=O)O[C@@]12CO[C@@H]1C[C@H](O)[C@@]1(C)C(=O)[C@H](O)C3=C(C)[C@@H](OC(=O)C(NC(=O)c4ccccc4)C(O)c4ccccc4)C[C@@](O)([C@@H](OC(=O)c4ccccc4)[C@H]21)C3(C)C (stereo in doubt; 14d) | 170 | – | – | –
CC(=O)O[C@H]1C(=O)[C@@]2(C)[C@H]([C@H](OC(=O)c3ccccc3)[C@]3(O)C[C@H](OC(=O)[C@@H](O)[C@H](NC(=O)OC(C)(C)C)c4ccccc4)C(C)=C1C3(C)C)[C@]1(OC(C)=O)CO[C@@H]1C[C@@H]2O | 30 | – | – | –
CC(=O)O[C@H]1C(=O)[C@]2(C)[C@@H](OC(=O)CCCC(=O)O)C[C@H]3OC[C@@]3(OC(C)=O)[C@H]2[C@H](OC(=O)c2ccccc2)[C@]2(O)C[C@H](OC(=O)C(O)C(NC(=O)c3ccccc3)c3ccccc3)C(C)=C1C2(C)C (stereo partly specified) | 1 | – | – | –
CC(=O)O[C@@]12CO[C@@H]1C[C@H](O)[C@@]1(C)C(=O)[C@H](O)C3=C(C)[C@@H](OC(=O)C(O)C(NC(=O)OC(C)(C)C)c4ccccc4)C[C@@](O)([C@@H](OC(=O)c4ccccc4)[C@H]21)C3(C)C (stereo in doubt; 13f) | 4.3 | – | – | –
CC(=O)O[C@H]1C(=O)[C@@]2(C)[C@H]([C@H](OC(=O)c3ccccc3)[C@]3(O)C[C@H](OC(=O)C(O)C(N)c4ccccc4)C(C)=C1C3(C)C)[C@]1(OC(C)=O)CO[C@@H]1C[C@@H]2O (stereo partly specified) | 44 | – | – | –
CC(=O)O[C@H]1C(=O)[C@@]2(C)[C@H]([C@H](OC(=O)c3ccccc3)[C@]3(O)C[C@H](OC(=O)[C@@H](NC(=O)c4ccccc4)[C@H](O)c4ccccc4)C(C)=C1C3(C)C)[C@]1(OC(C)=O)CO[C@@H]1C[C@@H]2O | 110 | – | – | –
